From article PMC7335359, “Design and Synthesis of Dihydroxamic Acids as HDAC6/8/10 Inhibitors” (Chemmedchem, 2020)

Experiments:
HDAC8 = molecular target: T1, HDAC8 (Homo sapiens, UniProt Q9BY41); experiment: HDAC-Glo I/II enzymatic assay, HDAC8; assay type: biochemical; settings: read-out: HDAC8 pIC50 (converted)
T1 construct: purchased BPS Bioscience 50008
T1 sequence (Q9BY41 1-377): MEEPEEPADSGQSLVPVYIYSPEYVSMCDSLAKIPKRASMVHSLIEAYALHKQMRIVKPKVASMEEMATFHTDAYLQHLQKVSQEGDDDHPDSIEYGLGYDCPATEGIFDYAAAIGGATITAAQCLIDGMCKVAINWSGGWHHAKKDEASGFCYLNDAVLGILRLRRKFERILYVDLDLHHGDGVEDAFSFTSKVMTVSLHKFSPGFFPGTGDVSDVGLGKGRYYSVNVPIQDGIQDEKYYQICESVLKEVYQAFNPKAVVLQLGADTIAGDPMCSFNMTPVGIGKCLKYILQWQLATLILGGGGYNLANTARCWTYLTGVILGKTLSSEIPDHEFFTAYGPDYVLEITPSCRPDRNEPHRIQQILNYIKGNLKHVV
Description: Inhibitors were tested at eight serial dilutions in triplicate ranging from 50 μM–86,7 pM (HDAC6) or 100 μM–8,67 nM (HDAC1,2,3,8). Drug dosing was performed from 10 mM and 0.1 mM DMSO stock solutions with a D300e Digital Dispenser (Tecan). HDACs (7 ng/mL for HDAC1, 10 ng/mL for HDAC2, 200 ng/mL for HDAC3/Ncor2 complex, 100 ng/mL for HDAC6, 200 ng/mL for HDAC8) and inhibitors were incubated together for 30 min at room temperature. After addition of the HDAC‐Glo™ I/II reagent, plates were shaken (800 rpm orbital shaker, 30 s), centrifuged (300 g, 1 min) and incubated at room temperature for 30 min. Luminescence was detected with a CLARIOstar (BMG Labtech) plate reader.

HDAC10 [1] = molecular target: T2, HDAC10 (Homo sapiens, UniProt Q969S8); experiment: ligand displacement TR-FRET assay, HDAC10; assay type: binding; set-up: host or cells: Sf21 insect cells (baculovirus); settings: ligand-displacement FRET assay; read-out: HDAC10 pIC50 (converted)
T2 sequence (Q969S8 1-669): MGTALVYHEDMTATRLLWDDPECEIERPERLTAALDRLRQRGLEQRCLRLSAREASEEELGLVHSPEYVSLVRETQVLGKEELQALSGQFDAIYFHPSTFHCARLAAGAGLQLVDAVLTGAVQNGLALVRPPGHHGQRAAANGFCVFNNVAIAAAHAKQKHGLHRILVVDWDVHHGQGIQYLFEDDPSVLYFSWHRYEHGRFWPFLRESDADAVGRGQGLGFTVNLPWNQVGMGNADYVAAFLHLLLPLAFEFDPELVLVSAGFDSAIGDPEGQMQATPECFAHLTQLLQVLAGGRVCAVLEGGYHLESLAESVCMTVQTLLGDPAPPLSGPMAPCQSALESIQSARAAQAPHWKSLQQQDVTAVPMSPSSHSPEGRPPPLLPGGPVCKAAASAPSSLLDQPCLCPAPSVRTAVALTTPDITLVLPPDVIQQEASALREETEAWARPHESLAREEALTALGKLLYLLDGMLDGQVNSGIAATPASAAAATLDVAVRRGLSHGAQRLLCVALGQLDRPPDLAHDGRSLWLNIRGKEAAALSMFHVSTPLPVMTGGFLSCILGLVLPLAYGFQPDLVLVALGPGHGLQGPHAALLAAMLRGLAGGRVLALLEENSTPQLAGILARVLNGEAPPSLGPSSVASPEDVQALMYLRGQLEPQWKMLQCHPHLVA
Description: Expression and purification of TwinStrepII‐GST‐HDAC10: A synthetic gene encoding TwinStrepII‐GST‐HDAC10 (human) was ordered from GeneArt (Thermo Fischer Scientific) and subcloned into the pFastBac1 vector. The resulting construct was used for transposition in E. coli DH10EMBacY cells. The isolated bacmid DNA was then used to generate the recombinant baculovirus. For protein expression, 10 mL of baculovirus was added to 1 L of Sf21 cells at a density of 1×10^6 cells/mL. The infected Sf21 cells were grown for 72 h in Sf‐900 III SFM medium (Thermo Fischer Scientific) at 27 °C. Cells were harvested by centrifugation and re‐suspended in running buffer (100 mM Tris pH 8.0, 150 mM NaCl, 1 mM EDTA and 1 mM DTT) supplemented with 10 mM MgCl2, benzonase and cOmplete protease inhibitors (Merck). […] The clarified lysate was then loaded onto a 5 mL Strep‐Tactin Superflow high capacity column (IBA) pre‐equilibrated in running buffer. After sample loading and washing, the TwinStrepII‐GST‐HDAC10 protein was eluted in running buffer supplemented with 5 mM desthiobiotin (IBA). The elution fractions containing TwinStrepII‐GST‐HDAC10 were pooled and concentrated before being injected onto a HiLoad 16/600 Superdex 200 pg size exclusion chromatography column (GE Healthcare) pre‐equilibrated with 25 mM HEPES/NaCl pH 7.5, 150 mM NaCl, 0.5 mM EDTA, 1 mM DTT and 10 % glycerol. Samples were eluted from the size exclusion chromatography column in the same buffer, flash‐frozen in liquid N2 and stored at −80 °C.
The TR‐FRET measurements of the monohydroxamic acids in this manuscript were measured in the original assay format, which is described directly below this paragraph. The TR‐FRET measurements of the dihydroxamic acids in this manuscript were measured in the modified format, which is described two paragraphs below this one.
The concentrations of reagents in 10 μL final assay volume were 3 nM GST‐HDAC10, 30 nM “Tubastatin‐Alexa647‐Tracer” and 0.5 nM Eu‐anti‐GST. GST‐HDAC10 and LanthaScreen™ Eu‐anti‐GST Antibody were purchased from Life Technologies, and the Tubastatin‐Alexa647‐Tracer was synthesized in‐house as previously described.19 An 11‐fold 1 : 3‐serial dilution of compounds starting at 2 mM was prepared in 384 well pp‐plates (Greiner) from 10 mM stocks in DMSO and 1 μL was transferred to assay plates. Nine μL of the reagent‐mix was added and the plate was incubated for 1 h at RT before TR‐FRET was measured in an EnVision™ plate reader equipped with a TR‐FRET Laser module. […] Percent inhibition was calculated for each well from negative control wells containing 2 % DMSO and positive control wells containing 20 μM SAHA. The resulting dose‐response curves were fitted in ActivityBase (IDBS) using a four‐parameter logistic model and pIC50‐values were calculated.
After drug dosing to the premixed assay reagents in buffer, plates were shaken (800 rpm orbital shaker, 30 s), centrifuged (300 g, 1 min) and incubated at room temperature in the dark for 60 min. TR‐FRET was measured with a CLARIOstar (BMG Labtech) plate reader, equipped with TR‐FRET filters.

HDAC10 [2] = molecular target: T2, HDAC10; set-up: host or cells: Sf21 insect cells (baculovirus); method as in PMID 30964290; settings: previously shown; cited from earlier work
HDAC10 [3] = molecular target: T2, HDAC10; experiment: cellular BRET HDAC10 target engagement assay (stably transfected HeLa cells); assay type: cell-based; set-up: host or cells: HeLa (stably transfected mono-clones); settings: cellular target engagement, one experiment in triplicate; read-out: HDAC10 BRET pIC50 (converted)
Description: Production of mono‐clones stably expressing HDAC‐nanoBRET proteins: Plasmids expressing a fusion of HDAC10 with nanoluciferase were obtained from Promega (N2170). HeLa cells (0.75×10^6) were seeded in a 6 cm dish and after 24 h were transfected with a mix of 10 μg plasmid and 3 μL Fugene in 200 μL OptiMEM. In detail, cells were washed with pre‐warmed OptiMEM and subsequently overlaid with 2.3 mL of OptiMEM. After addition of 200 μL transfection mix, cells were incubated for 24 h at 37 °C. Cells were than trypsinized and 0.2×10^5 cells were seeded into both 10 cm and 15 cm dishes. Transformants were selected with 1 mg/mL G‐418 for 6 days with a media change after 3 days. Clones which formed colonies were picked by rinsing plates with 3 mL Trypsin/EDTA (Sigma T3924) followed by a 2 min incubation with 300 μL Trypsin/EDTA at 37 °C. Colonies were then loosened and aspirated with a 10 μL filter tip and transferred to 24‐well plates containing selection medium.
Culture of stable BRET cell lines: Stably transfected HeLa cells were cultivated under sterile conditions in polystyrene cell culture flasks (658170, Greiner) at 37 °C and 5 % CO2 in a humidified atmosphere. DMEM growth medium (D6049, Sigma) was supplemented with 10 % FCS (FBS‐12A, Capricorn Scientific), 1 % penicillin‐streptomycin (P4333, Sigma) and 1 mg/mL Geneticin (2039.3, Roth). At confluency, cells were passaged by removing old medium, DPBS (14190‐094, gibco) wash, trypsination (T4049, Sigma) and seeding in fresh growth medium.
BRET assay: The intracellular target engagement assay on HDAC10 was performed as described by the kit manufacturer in a 96‐well plate (3600, Corning) format with 1.9×10^4 cells per well and a tracer concentration of 0.3 μM. […] Drug dosing was performed from 10 mM and 1 mM DMSO stock solutions with a D300e Digital Dispenser (Tecan), DMSO concentrations were normalized to 0.5 % for all wells. Assay plates were incubated at 37 °C for 2 h followed by measurement of 450 nm and 650 nm luminescence (80 nm bandwidth) at room temperature with a CLARIOstar (BMG Labtech) plate reader 2 min after NanoLuc substrate addition.

[4] = test system: SK‐N‐BE(2)C neuroblastoma cell line; experiment: SK-N-BE(2)C cell viability assay (CellTiter-Blue); assay type: cell-based; settings: SK-N-BE(2)C cells
Description: Cell viability assay: SK‐N‐BE(2)C cells were cultured in Dulbecco's modified Eagle medium (DMEM, Lonza, Basel, Switzerland) supplemented with 10 % fetal calf serum (FCS, Sigma‐Aldrich) and 1 % non‐essential amino acids (NEAA, Lonza). SK‐N‐BE(2)C cells were seeded from a confluent flask into 96‐well plates in 100 μL full growth medium at a density of 5×10^3 cells per well the day before treatment. Cells were treated in triplicates with drug concentrations as indicated in the respective figure. Drugs were dosed from 50 mM and 200 mM stock solutions with a D300e Digital Dispenser (Tecan) and DMSO concentrations were normalized to 0.2 % for all wells. Plates were shaken (1000 rpm orbital shaker, 30 s) and incubated under standard culture conditions for 72 h. To each well 20 μL of CellTiter‐Blue® reagent (G8081, Promega) was added, plates were shaken (600 rpm orbital shaker, 20 s) and incubated at 37 °C overnight. Fluorescence was measured (extinction/emission: 570 nm/590 nm) on a FluoStar Optima (BMG Labtech) plate reader. Cell viability was normalized with untreated positive controls and cell‐free negative controls. IC50‐values were calculated as described in the BRET assay.

[5] = test system: lysosomal staining with LysoTracker DND‐99 (HDAC10 knockdown phenotype); experiment: LysoTracker assay in SK-N-BE(2)C cells; assay type: cell-based; settings: 10 μM inhibitor, normalized to DMSO
Description: LysoTracker assay: SK‐N‐BE(2)‐C cells were seeded into 6‐well dishes at a density of 1.5×10^5 cells per well. Cells were treated with inhibitor over night at concentrations indicated in the figure and stained the following day for 1 h with 50 nM LysoTracker® Red DND‐99 in medium under standard cell culture conditions. Cells were washed with ice‐cold RPMI without phenol‐red and trypsinized for 3 min at 37 °C. Detached cells were centrifuged for 3 min at 8600 g and re‐suspended in ice‐cold RPMI without phenol red. Mean LysoTracker fluorescence was quantified on a BD FACSCanto II platform using the PE filter setting. Data were normalized to mean LysoTracker fluorescence of solvent (DMSO) treated cells.

[6] = test system: acetylation of the HDAC8 substrate SMC3; experiment: Western blot of SMC3 acetylation in SK-N-BE(2)C cells; assay type: cell-based; settings: relative to solvent control
Description: Western blot analysis of SMC3, tubulin and histone H3 acetylation: For the analysis of protein acetylation, 1.5–2×10^6 SK‐N‐BE(2)‐C cells were seeded per 10 cm dish and allowed to adhere overnight. Cells were treated for 18 h (Figure 4B) or 6 h (Figure 4E) with inhibitors at concentrations indicated in the respective figure. […] Cell debris was removed by centrifugation (15 000 g for 10 min at 12 °C).

Row | IC50 (HDAC8) [nM] | IC50 (HDAC10 [1]) [nM] | Structure (SMILES) | also measured
1 | 380 | 66.1 | O=C(NO)c1ccc(Cn2ccc3ccccc32)cc1 [Compound 1a] | –
2 | 20.9 | 19100 | COc1ccc(Cn2ncc3ccc(C(=O)NO)cc32)cc1 [Compound 2f] | –
3 | 141 | 6460 | COc1ccc(Cn2c3c(c4ccc(C(=O)NO)cc42)CN(C)CC3)cc1 [Compound 2c] | –
4 | 49 | 1620 | COc1ccc(Cn2cc(CN(C)C)c3ccc(C(=O)NO)cc32)cc1 [Compound 2b] | –
5 | 389 | 234 | O=C(NO)c1ccc(Cn2ncc3ccccc32)cc1 [Compound 1f] | –
6 | 69.2 | 3160 | COc1ccc(Cc2c[nH]c3ccc(C(=O)NO)cc23)cc1 [Compound 2d] | –
7 | 955 | 5.25 | CN(C)Cc1cn(Cc2ccc(C(=O)NO)cc2)c2ccccc12 [Compound 1b] | selectivity for HDAC10 over HDACs 1, 2, and 3 (HDAC10 [2]): > 100 fold
8 | – | 27.5 | O=C(NO)c1ccc(Cc2c[nH]c3ccccc23)cc1 [Compound 1d, 4-((1H-indol-3-yl)methyl)-N-hydroxyb en zamide] | IC50 (HDAC10 [3]): 39.8 nM
9 | 43.7 | 661 | COc1ccc(Cc2cn(CCN(C)C)c3ccc(C(=O)NO)cc23)cc1 [Compound 2e] | –
10 | – | – | CN1CCc2c(c3ccccc3n2Cc2ccc(C(=O)NO)cc2)C1 [Compound 1c, reference compound] | cytotoxicity (extent of effect) ([4]; Figure S1): fully cytotoxic; lysosomal staining with LysoTracker DND-99 (HDAC10 knockdown phenotype) [5]: effective
11 | – | – | COc1ccc(Cn2ccc3ccc(C(=O)NO)cc32)cc1 [Compound 2a] | acetylation of SMC3 (HDAC8 substrate), Western blot [6]: increased acetylation; cytotoxicity (extent of effect) ([4]; Figure S1): not fully cy totoxic; Emax ([4]; Figure S1, read-out: maximum effect, cell growth inhibition): 62%; EC50 ([4]; read-out: EC50 dose-response curve (Figure S1)): 8.1 µM
12 | 29.5 | 6920 | COc1ccc(Cn2nc(CN(C)C)c3ccc(C(=O)NO)cc32)cc1 [Compound 2g] | acetylation of SMC3 (HDAC8 substrate), Western blot [6]: increased acetylation
